Assay results published in patent US7534558B2, “In vitro diagnostic test for enterovirus infections” (Universite de Lille 2 Droit Et Sante, priority 2003, dated 2009).

Columns and labels:
Assay type in all cases: cell-based, human
[1] = system: different CVB serotypes (CVB1 to CVB6)/plasma induced IFNα production by PBMCs; experiment: IFNα production during infection of PBMCs by different CVB serotypes in presence of plasma preincubated with VP4-CVB4E2; conditions: plasma 1/10 preincubated 1 h with VP4 recombinant protein of CVB4E2 diluted 1/10
Description: (§1) PBMCs separated from whole heparinated blood are distributed into microwells (plate of 96 wells), at the rate of 5 to 8.10^5 cell in 100 μl of supplemented RPMI medium by well. The infection of PBMC is made with a final volume of 100 μl of preparation in each well. After incubation for 48 h at 37° C. under a 5% CO2 atmosphere and 90% humidity, the supernatant is harvested and used immediately for IFNα dosage, or clarified by centrifugation for 10 minutes at 180×g and stored at −80° C. until dosage of the produced IFNα.
(§2) The concentration of the produced IFNα is determined with a sensitive and specific technique, the DELFIA method (Dissociation Enhanced Lanthanide FluoroImmmoAssay) (Rönnblom and al 1997).
(§3) The dosage of IFNα is performed following the DELFIA principle (Dissociation Enhanced Lanthanide FluoroImmunoAssay), based on a immunofluorescence in retarded phase method using antibodies binding IFNα of which one is labelled with europium. The use of an activation solution will release the europium conjugated with antibodies and emit a fluorescence proportional to the amount of produced IFNα and measured with a fluorometer (fluorometer LKB Wallac 1230 ARCOSO®, Turku, Finlande).
Monoclonal anti-IFNα antibodies LT 273 (5.4 mg/ml) and LT 293 (4.8 mg/ml) supplied by Dr Gunar Alm (Uppsala, Sweden) are coated to the bottom of the wells after an incubation for 12 hours at room temperature. […]

[2] = system: CVB4E2/plasma induced IFNα production by PBMCs; experiment: CVB4E2/plasma induced IFNα production by PBMCs (DELFIA)
Description: (§4) VP4, H antigen or mock proteins were preincubated for 1 h at 37° C. at different concentrations with plasma from 5 healthy subjects diluted at optimal dilution (1/10 or 1/100 ). CVB3 or CVB4 were then added for 1 hour before incubating with PBMCs. […] On the contrary, the mock proteins isolated from non-infected Hep-2 cells have non effect on the IFNα production.
as §1, §2, §3
Monoclonal anti-IFNα antibodies LT 273 (5.4 mg/ml) and LT 293 (4.8 mg/ml) supplied by Dr Gunar Alm (Uppsala, Sweden) are coated to the bottom of the wells after an incubation for 12 hours at room temperature. These plates can be stored in a buffer at 4° C. or are used immediately. Standard samples of human IFNα are prepared with an “irrelevant” monoclonal mouse antibody IgG1 in order to establish the reference curve (10 measurements). The other samples to be analysed are added to each well (100 μl) with the dilution buffer and the “irrelevant” antibodies and incubated for 2 hours with gentle stirring at room temperature. The wells are washed 3 times with the washing solution. The antibody conjugated to europium (200 μl) is added to each well, left to incubate for 1 hour at room temperature with gentle stirring. The plate is washed 6 times with a washing solution. The activation solution (200 μl), added immediately after washing and left for 20 to 30 minutes for incubation in the well, causes a cleavage of the europium bound to the antibody fixed to IFNα, emitting a fluorescence measured with the fluorescence reader (LKB Wallac 1230 ARCUS®). The IFNα concentration will be calculated from the values of the measured fluorescence by means of the Graphpad program (San Diego, USA). The detection threshold of IFNα is of 0.5 IU/ml.
The plasma from a healthy donor (optimal dilution 1/10th or 1/100th) is pre-incubated for 1 hour at 37° C. with the recombinant VP4 protein of CVB4E2 (optimal concentration at 1 μg/ml). The whole is incubated again for one hour at 37° C. in the presence of the CVB4E2 virus (dilutions at 1/10th or 1/100th; viral titer at 10^13 TCID50/ml) then applied to the PBMCs, (5.10^5/well) to incubate for 48 hours.
In the same way, the plasma preparation preincubated for 1 hour and VP4 of CVB3 are incubated for 1 hour with CVB4E2 before infecting the PBMCs for 48 hours and determinating the amount of the produced IFNα.
The virus (CVB4E2 or CVB3) infected PBMCs in the presence of plasma are deemed to be positive controls of this experimentation. The negative controls are obtained with one well of PBMC alone, one well of virus CVB4B2 alone and one well of CVB3 alone.
The CVB4E2 induced IFNα production in cultures of PBMCs previously incubated in the presence of plasma from healthy subjects was measured. […]

[3] = system: CVB3/plasma induced IFNα production by PBMCs; experiment: CVB3/plasma induced IFNα production by PBMCs (DELFIA); conditions: CVB3 infection of PBMCs; healthy donor plasma preincubated 1 h with the VP4 protein before CVB3; 48 h; positive control 323 IU/ml
Description: as §4
PBMCs separated from whole heparinated blood are distributed into microwells (plate of 96 wells), at the rate of 5 to 8.10^5 cell in 100 μl of supplemented RPMI medium by well. The infection of PBMC is made with a final volume of 100 μl of preparation in each well. […]
as §2
as §3, with “Finlande). […]” for “Finlande).”

recombinant VP4 protein: recombinant VP4 protein of CVB4E2, made in E. coli as MBP-VP4 fusion and cleaved by Factor Xa
IFNα production with CVB serotypes other than CVB4E2 [1]: remains high and stable | IFNα production ([2]; CVB4E2 infection of PBMCs, healthy donor plasma preincubated 1 h with the VP4 protein before CVB4E2, 48 h, positive control 148 IU/ml): 8.5 IU/ml | IFNα production in the presence of CVB4E2 ([2]; plasma 1/10 preincubated 1 h with VP4 recombinant protein of CVB4E2 diluted 1/10): collapsed | IFNα production ([2]; protein at 0.01 μg/mL preincubated with plasma, then CVB4E2 (m.o.i. 1), PBMCs 48 h, mean +/- SD, three donors): 189.5+/−21.6 IU/mL | IFNα production ([2]; protein at 0.1 μg/ml preincubated with plasma, then CVB4E2 (m.o.i. 1), PBMCs 48 h, mean +/- SD, three donors): 104.7+/−4.5 IU/mL | IFNα production ([2]; protein at 1 μg/ml preincubated with plasma, then CVB4E2 (m.o.i. 1), PBMCs 48 h, mean +/- SD, three donors): 44.1+/−24.3 IU/mL | IFNα production ([2]; protein at 10 μg/ml preincubated with plasma, then CVB4E2 (m.o.i. 1), PBMCs 48 h, mean +/- SD, three donors): 15.3+/−7.9 IU/mL | IFNα production [3]: 308 IU/ml
